Assay results published in patent US12171229B2, “Heteroaryl-triazole and heteroaryl-tetrazole compounds as pesticides” (BAYER AKTIENGESELLSCHAFT, priority 2018, dated 2024).

What was measured:
Type in all cases: in vivo
Ctenocephalides felis [1] = assay: Ctenocephalides felis in-vitro contact test, adult cat flea; conditions: 5 μg/cm^2 (=500 g/ha), after 48 hours, adult cat fleas, read-out: efficacy (fleas dead or moribund)
In short: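 Compound in acetone coated onto inner walls of glass tubes, e.g. 900 ppm giving 5 μg/cm². After drying, 5–10 adult C. felis added per tube and held at room temperature. At 48 h, fleas unable to escape a 45–50 °C heating plate within 5 min scored dead/moribund, giving % efficacy.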

Spodoptera frugiperda = Spodoptera frugiperda spray test; conditions: 168 h, after 7 days, larvae on maize leaf sections
In short: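 Caterpillars are placed on sprayed, dried maize leaf sections. Sprays contain compound diluted in water with emulsifier at 1000 ppm; mortality in % is determined 7 days later.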

Nezara viridula = Nezara viridula spray test; conditions: 96 h, after 4 days, larvae on barley plants
In short: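 Barley plants infested with Nezara viridula larvae were sprayed with compound diluted in water containing 1000 ppm emulsifier. Percent mortality was scored 4 days later, where 100% means all bugs killed and 0% none.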

Boophilus microplus = Boophilus microplus injection test; conditions: Rhipicephalus microplus, 168 h; 20 μg/animal injected into the abdomen; adult engorged female ticks; egg deposition after 7 days; read-out: efficacy (infertile eggs)
In short: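 Five engorged adult female ticks received a 1 μl abdominal injection of compound in DMSO. They were then held in a climate chamber, with egg deposition checked after 7 days. Unclear eggs were kept until hatching at about 42 days, and efficacy was scored as the percentage of infertile eggs.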

Myzus persicae [2] = assay: Myzus persicae oral test; conditions: 120 h, after 5 days
In short: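 Aphid mortality (%) was recorded 5 days after a mixed Myzus persicae population began sucking, through parafilm, on compound solutions (acetone stock diluted with water) combined with sugar-supplemented IPL41 medium.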

[3] = test system: Musca domestica strain WHO-N; assay: Musca domestica test (MUSCDO surface treatment & contact assay); conditions: surface concentration 20 mg/m^2, exposure 30 minutes, 24 hours after contact, read-out: efficacy (mortality)
Description: Musca domestica test (MUSCDO surface treatment & contact assay)
Solvent: Aceton+2000 ppm rapeseed oil methyl ester (RME)
In order to produce a sufficient, active ingredient containing solution it is necessary to solve the test compound in the solvent-mix (acetone at 2 mg/ml/RME 2000 ppm). This solution is pipetted onto a glazed tile and after evaporation of the acetone, adult flies of the species Musca domestica strain WHO-N are placed onto the dried surface. The exposure time is 30 minutes.
Mortality in percent (%) is determined 24 hours after contact of the insects to the treated surface. 100% morality means that all tested insects are dead, whereas 0% means that no insect died.

[4] = test system: Aedes aegypti strain MONHEIM; assay: Aedes aegypti test (AEDSAE surface treatment & contact assay); conditions: 24 hours after contact, read-out: efficacy (mortality)
In short: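 Compound dissolved in acetone (2 mg/ml) with 2000 ppm rapeseed oil methyl ester, applied to glazed tile and dried; adult strain MONHEIM mosquitoes exposed 30 minutes. Percent mortality scored 24 hours after contact.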

Rhipicephalus sanguineus = Rhipicephalus sanguineus in-vitro contact test, adult brown dog ticks; conditions: 5 μg/cm^2 (=500 g/ha), after 48 hours, read-out: efficacy (ticks dead or moribund)
Description: Rhipicephalus Sanguineus—In-Vitro Contact Tests with Adult Brown Doe Ticks
9 mg compound is solved in 1 ml acetone and diluted with acetone to the desired concentration. 250 μl of the test solution is filled in 25 ml glass test tubes and homogeneously distributed on the inner walls by rotation and tilting on a shaking device (2 h at 30 rpm). With a compound concentration of 900 ppm, an inner surface of 44.7 cm^2 and a homogeneous distribution, a dose of 5 μg/cm^2 is achieved.
After the solvent has evaporated, each test tube is filled with 5-10 adult brown dog ticks (Rhipicephalus sanguineus), closed with a perforated lid and incubated in a lying position at room temperature and relative humidity. After 48 hours efficacy is determined. The ticks are patted on the ground of the tubes and are incubated on a heating plate at 45-50° C. for at most 5 minutes. Immotile or uncoordinated moving ticks, which are not able to escape the heat by climbing upwards, are marked as dead or moribund.
An efficacy of 100% means all ticks are dead or moribund; 0% means no ticks are dead or moribund.

Meloidogyne incognita = Meloidogyne incognita test; conditions: 20 ppm; after 14 days; salad seedlings
Description: Meloidogyne incognita—Test Solvent: 125.0 parts by weight of acetone To produce a suitable preparation of active compound, 1 part by weight of active compound is mixed with the stated amount of solvent, and the concentrate is diluted with water to the desired concentration. Vessels are filled with sand, a solution of the active ingredient, a suspension containing eggs and larvae of the southern root-knot nematode (Meloidogyne incognita) and salad seeds. The salad seeds germinate and the seedlings grow. Galls develop in the roots. After 14 days the nematicidal activity is determined on the basis of the percentage of gall formation. 100% means no galls were found and 0% means the number of galls found on the roots of the treated plants was equal to that in untreated control plants.

Diabrotica balteata = Diabrotica balteata spray test; conditions: Diabrotica balteata, in Triticum aestivum, 168 h, after 7 days, larvae on wheat seeds, read-out: efficacy (seedlings grown up); for pest or weed control at 80 µg/disc, 250 g/ha: 80 μg/well (=250 g/ha); for pest or weed control at 160 µg/disc, 500 g/ha: 160 μg/well (=500 g/ha)
In short: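 Germinated wheat seeds (5 per well, 1 day on agar) sprayed with compound diluted in water containing 1000 ppm emulsifier, then infested with 10–20 D. balteata larvae. Efficacy scored after 7 days: 100% = seedlings like untreated uninfested control, 0% = no seedlings grown.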

Ctenocephalides felis [5] = assay: Ctenocephalides felis oral test; conditions: 48 h, 100 ppm in cattle blood, after 2 days, adult unfed cat fleas
In short: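 About 20 unfed adult cat fleas feed through parafilm on cattle blood dosed with compound from a DMSO stock. Blood chamber at 37° C, fleas at room temperature. Percent mortality scored after 2 days.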

Phaedon cochleariae = Phaedon cochleariae spray test; conditions: foliar, 168 h, after 7 days, larvae on Chinese cabbage leaf disks
Description: Phaedon Cochleariae—Spray Test
(§1) To produce a suitable preparation of active compound, 1 part by weight of active compound is mixed with the stated amount of solvents and is diluted with water, containing an emulsifier concentration of 1000 ppm, to the desired concentration. Further test concentrations are prepared by dilution with emulsifier containing water.
Chinese cabbage (Brassica pekinensis) leaf disks are sprayed with a preparation of the active ingredient of the desired concentration. Once dry, the leaf disks are infested with mustard beetle larvae (Phaedon cochleariae).
After 7 days mortality in % is determined. 100% means all beetle larvae have been killed and 0% means none of the beetle larvae have been killed.

Myzus persicae [6] = assay: Myzus persicae spray test; conditions: foliar, 120 h, after 5 days, Chinese cabbage leaf disks
In short: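 Chinese cabbage leaf disks infested with all aphid instars were sprayed with compound diluted in water containing emulsifier (1000 ppm). Mortality (%) was scored after 5 days, 100% meaning all aphids killed.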

Nilaparvata lugens = Nilaparvata lugens spray test; conditions: 336 h, after 14 days, rice plants
Description: Nilaparvata lugens—Spray Test
as §1
Rice plants (Oryza sativa) are sprayed with a preparation of the active ingredient of the desired concentration and the plants are infested with the brown planthopper (Nilaparvata lugens).
After 14 days mortality in % is determined. 100% means all planthoppers have been killed and 0% means none of the planthoppers have been killed.

[7] = test system: cattle ticks (Boophilus microplus) strane Parhurst, SP-resistant; assay: Boophilus microplus dip test; conditions: Rhipicephalus microplus, 168 h, engorged adult female cattle ticks, egg deposition after 7 days, read-out: efficacy (infertile eggs)
Description: Boophilus microplus—Dip Test
Test animal: cattle ticks (Boophilus microplus) strane Parhurst, SP-resistant
Solvent: dimethyl sulfoxide
To produce a suitable preparation of active compound, 10 mg of active compound are dissolved in 0.5 ml solvent, and the concentrate is diluted with water to the desired concentration.
This compound solution is pipetted into tubes. 8-10 engorged, adult, female cattle ticks (Boophilus microplus) are placed in perforated tubes. These tubes are immersed in the aqueous compound solution until the ticks are completely moistened. After the liquid has drained off, the ticks are transferred to a filter paper in a plastic tray and stored in a climate chamber.
After 7 days egg deposition of fertile eggs is monitored. Eggs where fertility is not visible are stored in a climate chamber till hatching after about 42 days. An efficacy of 100% means all eggs are infertile; 0% means all eggs are fertile.

Row | SMILES | pest or weed control at 5 µg/cm2 (Ctenocephalides felis [1]) | mortality at 100 g/ha (Spodoptera frugiperda) | mortality at 500 g/ha (Spodoptera frugiperda) | mortality at 100 g/ha (Nezara viridula) | mortality at 500 g/ha (Nezara viridula) | pest or weed control at 0.02 mg (Boophilus microplus) | pest or weed control at 5 µg/cm2 (Rhipicephalus sanguineus) | nematicidal activity (gall formation) (Meloidogyne incognita) | pest or weed control at 80 µg/disc, 250 g/ha (Diabrotica balteata) | pest or weed control at 160 µg/disc, 500 g/ha (Diabrotica balteata) | mortality at 100 ppm (Ctenocephalides felis [5]) | mortality at 500 g/ha (Phaedon cochleariae) | mortality at 500 g/ha (Nilaparvata lugens) | further results
1 | C[C@H](NC(=O)c1cc(Cl)cc(C(F)(F)F)c1)c1ncnn1-c1ncc(C#N)cn1 [Example I-010] | 100% | 100% | 100% | 100% | 100% | 100% | 100% | 100% |  |  |  |  |  | mortality at 4 ppm (Myzus persicae [2]): 100%; mortality at 20 mg/m2 [3]: 90 to 100%; mortality at 4 mg/m2 ([4]; surface concentration 4 mg/m^2, exposure 30 minutes): 90 to 100%; mortality at 20 mg/m2 ([4]; surface concentration 20 mg/m^2, exposure 30 minutes): 90 to 100%
2 | C[C@H](NC(=O)c1cc(Cl)cc(C(F)(F)F)c1)c1ncnn1-c1ccc(-n2cccn2)cn1 [Example I-074] | 80% | 100% | 100% |  |  | 100% | 80% |  | 100% | 100% | 80% |  |  | 
3 | COc1cc(C)nc(-n2ncnc2C(C)N(CC2CC2)C(=O)c2cc(Cl)cc(C(F)(F)F)c2)n1 (centres unmarked) [Example I-001] |  |  |  |  |  |  |  | 100% |  | 100% |  |  |  | 
4 | CC(c1ncnn1-c1ncc(C#N)cn1)N(CC1CC1)C(=O)c1cc(Cl)cc(C(F)(F)F)c1 (centres unmarked) [Example I-008] |  | 100% | 100% | 90% | 90% |  |  |  | 100% | 100% |  | 100% |  | mortality at 20 ppm (Myzus persicae [2]): 100%
5 | Cc1cc(C)nc(-n2ncnc2C(C)N(CC2CC2)C(=O)c2cc(Cl)cc(C(F)(F)F)c2)n1 (centres unmarked) [Example I-002, 3-Chloro-N-(cyclopropylmethyl)-N-{1-[1-(4,6-dimethylpyrimidin-2-yl)-1H-1,2,4-triazol-5-yl]ethyl}-5-(trifluoromethyl)benzamide] |  |  |  |  |  |  |  | 90% |  |  |  |  |  | 
6 | CC(c1ncnn1-c1ccn(C)n1)N(CC1CC1)C(=O)c1cc(Cl)cc(C(F)(F)F)c1 (centres unmarked) [Example I-006] |  |  | 100% |  |  | 100% |  |  | 100% | 100% | 100% | 100% |  | mortality at 20 ppm (Myzus persicae [2]): 100%
7 | C[C@H](NC(=O)c1cncc(C(F)(F)F)c1)c1ncnn1-c1ccc(C#N)cn1 [Example I-067] | 100% | 100% | 100% | 100% | 100% | 100% | 100% |  | 100% | 100% | 100% |  | 90% | mortality at 100 g/ha (Myzus persicae [6]): 90%; mortality at 500 g/ha (Myzus persicae [6]): 90%; mortality at 4 ppm (Myzus persicae [2]): 100%
8 | C[C@H](NC(=O)c1cc(Cl)cc(C(F)(F)F)c1)c1ncnn1-c1ncc(OC(F)F)cn1 [Example I-012] | 100% | 100% | 100% | 100% | 100% | 100% | 100% |  | 100% | 100% | 100% |  | 100% | pest or weed control at 100 ppm [7]: 95%
9 | CC(c1ncnn1-c1nc2ccccn2n1)N(CC1CC1)C(=O)c1cc(Cl)cc(C(F)(F)F)c1 (centres unmarked) [Example I-005] |  |  | 100% |  | 100% | 100% |  |  | 100% | 100% | 100% | 100% |  | 
10 | C[C@H](NC(=O)c1cc(Cl)cc(C(F)(F)F)c1)c1ncnn1-c1ccc(N(S(C)(=O)=O)S(C)(=O)=O)cn1 [Example I-037] | 100% | 100% |  | 100% | 100% | 100% |  |  | 100% | 100% | 100% |  | 100% | mortality at 100 g/ha (Myzus persicae [6]): 90%; mortality at 500 g/ha (Myzus persicae [6]): 90%; pest or weed control at 100 ppm [7]: 100%
